Data from patent US12523664B2, “Sensor chip and methods thereof” (NATIONAL UNIVERSITY OF SINGAPORE, priority 2019, dated 2026).
Entries after “also recorded” stand apart in the source; their conditions may differ.

Biological target: amylogenic protein (Homo sapiens, UniProt P05067)
Assay: Protein aggregation with or without inhibitor, aggregate size by dynamic light scattering
Type: biochemical
Conditions: 10 μM inhibitor added before 1 h incubation with agitation
Description: Aggregate size determination. Hydrodynamic diameter of amylogenic protein and BSA aggregates were determined by dynamic light scattering analysis (Zetasizer Nano ZSP, Malvern). 3×14 measurement runs were performed at 4° C. Z-average diameter and polydispersity were analyzed. For every measurement, the auto-correlation function and polydispersity index were monitored to ensure sample quality for size determination.
Protein aggregation. Lyophilized amylogenic protein was resuspended in NaOH (60 mM, 4° C.), sonicated, and pH adjusted to pH 7.4 in PBS. The protein was immediately filtered through a 0.2-μm membrane filter (Millipore) and the filtrate was used as the small initial aggregates. For preparation of the bigger aggregates, the protein was treated as described above and incubated with agitation for 1 h to induce further aggregation. […] Aggregate size determination was performed at the end of the incubation.

Chain of amylogenic protein (P05067 672-713 limits assumed): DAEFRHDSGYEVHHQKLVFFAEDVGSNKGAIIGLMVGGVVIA

CN(C)c1ccc2nc3ccc(=[N+](C)C)cc-3sc2c1 [inhibitor, methylene blue]
increase in size as a result of spontaneous protein aggregation: reduced spontaneous protein aggregation; also recorded: minimal
